Assay results taken from PMC7673559 (2020).

What was measured:
[1] = tested on: T7 (DNA, G4) TGGGTTGGGTTGGGTTGGGT; assay: UV-vis titration, SVD, direct fit; conditions: 5 mM K+, 95 mM Li+; 10 mM lithium cacodylate pH 7.2; 4.3 μM NMM titrated with DNA
[2] = tested on: T8 (DNA, G4) CGGGTTGGGTTGGGTTGGGG; assay: CD melting at 262 nm; conditions: 5 mM K+, 95 mM Li+; 10 mM lithium cacodylate pH 7.2; ~5 μM DNA, 2 eq. NMM
[3] = tested on: T1 (DNA, G4) GGGTTGGGTTGGGTTGGG; assay: X-ray crystallography, 2.39 Å; conditions: 20 mM K+; annealed in 10 mM lithium cacodylate pH 7.2; 5'-5' GQ dimer, NMM on 3' G-quartet
[4] = tested on: T7 (DNA, G4) TGGGTTGGGTTGGGTTGGGT; assay: CD melting at 262 nm; conditions: 5 mM K+, 95 mM Li+; 10 mM lithium cacodylate pH 7.2; ~5 μM DNA, 2 eq. NMM
[5] = tested on: T7 (DNA, G4) TGGGTTGGGTTGGGTTGGGT; assay: X-ray crystallography, 2.34 Å; conditions: 20 mM K+; annealed in 10 mM lithium cacodylate pH 7.2; 5'-5' GQ dimer, NMM on 3' G-quartet
[6] = tested on: T1 (DNA, G4) GGGTTGGGTTGGGTTGGG; assay: CD melting at 262 nm; conditions: 5 mM K+, 95 mM Li+; 10 mM lithium cacodylate pH 7.2; ~5 μM DNA, 2 eq. NMM

In the case of `CCc1c(C)c2cc3nc(cc4nc(cc5c(CC)c(C)c(cc1[nH]2)n5C)C(C)=C4CCC(=O)O)C(CCC(=O)O)=C3C`, the Ka [1] is reported as 18 ± 7 µM⁻¹, the ΔTm [2] is reported as 17.0 ± 0.5 °C and the binding [3] is reported as “yes”. The ΔTm [4] was 19.9 ± 0.4 °C, the binding [5] was “yes” and the ΔTm [6] was 20. ± 1 °C.
